Data published in paper PMC9151520 (Archives of Toxicology, 2022).
“And” between values parts separate entries of the source, which are not always exact repeats. Identical values can stand only once. Like-named read-outs stand apart in the source and are kept apart here.

How the values were obtained:
[1] = tested on: p53 signaling (p53RE-bla HCT-116 cells); experiment: cells; format: cell-based
[2] = tested on: p53 signaling (p53RE-bla HCT-116 cells); experiment: cells; format: cell-based; remark: listed apart in the source
[3] = tested on: p53 signaling (p53RE-bla HCT-116 cells); experiment: cells; format: cell-based; design: efficacy: unit not given here; settings: for EC50 / Emax: Homo sapiens; for EC50: HCT-116; for Emax: HCT-116, read-out: efficacy
[4] = tested on: p53 signaling (p53RE-bla HCT-116 cells)
[5] = tested on: p53 signaling (p53RE-bla HCT-116 cells); remark: listed apart in the source
[6] = rat
[7] = tested on: p53 signaling (p53RE-bla HCT-116 cells); experiment: cells; settings: Homo sapiens
[8] = tested on: p53 signaling (p53RE-bla HCT-116 cells); experiment: cells; settings: Homo sapiens; remark: listed apart in the source
in vitro = settings: male, Sprague Dawley, rat, microsomes, pH 7.4
[9] = HCT-116, read-out: p53 activation EC50, HLM

COP(=S)(OC)SCn1nnc2ccccc2c1=O [Azinphos-methyl]
p53 activation EC50 [1]: inactive
p53 activation efficacy [1]: inactive
efficacy [2]: 6.6 ± 0.91 ( 57.05 ± 12.27 ) %
EC50 ([2]; Homo sapiens, HCT-116, 0.5 h): 6600 nM
efficacy [3]: 7.29 ± 2.15 ( 104.64 ± 29.38 ) %
EC50 [3]: 7290 nM
p53 activation efficacy [4]: 77.2775 and 58.65
p53 activation EC50 [5]: inactive
Viability EC50 (p53RE-bla HCT-116 cells): inactive
Viability efficacy (p53RE-bla HCT-116 cells): inactive
Depletion after 16 h of incubation with cells [6]: 94.04 ± 0.16%
EC50 ([7]; HCT-116): 11600 nM
EC50 ([8]; HCT-116, read-out: p53 activation EC50): 14900 nM

CCOP(=S)(OCC)SCSCC [Phorate]
half-life (in vitro): 104 ± 22.4 min

CCOP(=O)(NC(C)C)Oc1ccc(SC)c(C)c1 (stereo not shown) [Fenamiphos]
p53 activation EC50, No MS [1]: inactive
p53 activation Efficacy, No MS [1]: inactive
efficacy [2]: 0.37 ± 0.15 ( 33.54 ± 3.04 ) %
EC50 ([2]; Homo sapiens, HCT-116, 0.5 h): 370 nM
efficacy [3]: 1.34 ± 0.33 ( 75.12 ± 11.54 ) %
EC50 [3]: 1340 nM
EC50 ([4]; read-out: p53 activation EC50, RLM): 958 nM
p53 activation EC50, HLM [5]: inactive
Viability EC50, HLM (p53RE-bla HCT-116 cells): inactive
Viability EC50, No MS (p53RE-bla HCT-116 cells): inactive
Viability EC50, RLM (p53RE-bla HCT-116 cells): inactive
Viability Efficacy, HLM (p53RE-bla HCT-116 cells): inactive
Viability Efficacy, No MS (p53RE-bla HCT-116 cells): inactive
Viability Efficacy, RLM (p53RE-bla HCT-116 cells): inactive
Depletion after 16 h of incubation with cells [6]: 99.41 ± 0.07%
EC50 ([7]; HCT-116): 1500 nM
EC50 ([7]; HCT-116, read-out: p53 activation EC50, RLM): 1550 nM
EC50 [8, 9]: 1490 nM

Cc1cc(=O)n(-c2ccccc2)n1C [antipyrine, reference compound]
half-life (in vitro): > 120 min

CCOP(=S)(NC(C)C)Oc1ccccc1C(=O)OC(C)C (stereo not shown) [Isofenphos]
p53 activation EC50, cherry pick confirmation [1]: inactive
p53 activation EC50, primary screening [1]: inactive
p53 activation efficacy, cherry pick confirmation [1]: inactive
p53 activation efficacy, primary screening [1]: inactive
EC50 [2]: Inactive
EC50 [3]: 810 nM
Emax [3]: 54.3%
p53 activation EC50, cherry pick confirmation [5]: inactive
p53 activation efficacy, cherry pick confirmation [5]: inactive
Viability EC50, cherry pick confirmation (p53RE-bla HCT-116 cells): inactive
Viability EC50, primary screening (p53RE-bla HCT-116 cells): inactive
Viability efficacy, cherry pick confirmation (p53RE-bla HCT-116 cells): inactive
Viability efficacy, primary screening (p53RE-bla HCT-116 cells): inactive
Depletion after 16 h of incubation with cells [6]: 88.45 ± 1.49%
EC50 ([7]; HCT-116): 750 nM
Emax ([7]; HCT-116, read-out: efficacy): 42.6%
EC50 ([7]; HCT-116, read-out: p53 activation EC50, cherry pick confirmation): 777 nM
Emax ([7]; HCT-116, read-out: p53 activation efficacy, cherry pick confirmation): 42.6%
half-life (in vitro): 1.25 ± 0.47 min

O=C1CC2(CCCC2)CC(=O)N1CCCCN1CCN(c2ncccn2)CC1 [buspirone, reference compound]
half-life (in vitro): 7.2 ± 2.3 min

CCOP(=S)(OCC)Oc1ccc([N+](=O)[O-])cc1 [Parathion]
p53 activation EC50, No MS [1]: inactive
p53 activation Efficacy, No MS [1]: inactive
EC50 [2]: Inactive
EC50 [3]: 1450 nM
Emax [3]: 35.6%
p53 activation EC50, HLM [5]: inactive
Viability EC50, HLM (p53RE-bla HCT-116 cells): inactive
Viability EC50, No MS (p53RE-bla HCT-116 cells): inactive
Viability EC50, RLM (p53RE-bla HCT-116 cells): inactive
Viability Efficacy, HLM (p53RE-bla HCT-116 cells): inactive
Viability Efficacy, No MS (p53RE-bla HCT-116 cells): inactive
Viability Efficacy, RLM (p53RE-bla HCT-116 cells): inactive
Depletion after 16 h of incubation with cells [6]: 98.86 ± 0.34%
EC50 ([7]; HCT-116): 1110 nM
Emax ([7]; HCT-116, read-out: efficacy): 36.3%
EC50 [8, 9]: 1200 nM

CCOP(=O)(SC(C)CC)N1CCSC1=O (stereo not shown) [Fosthiazate]
half-life (in vitro): 15.2 ± 1.93 min

OCCN(CCO)c1nc(N2CCCCC2)c2nc(N(CCO)CCO)nc(N3CCCCC3)c2n1 [Dipyridamole, reference compound]
EC50 ([2]; Homo sapiens, HCT-116, 0.5 h): 4360 nM
Emax ([2]; Homo sapiens, HCT-116, read-out: efficacy): 174%
EC50 [3]: 5280 nM
half-life (in vitro): 7.32 ± 0.59 min

Cc1nc(N(C)C)nc(OC(=O)N(C)C)c1C [Pirimicarb]
half-life (in vitro): 11.7 ± 0.52 min

COP(=S)(OC)Oc1cc(Cl)c(I)cc1Cl [Iodenphos]
p53 activation EC50 [1]: inactive
p53 activation efficacy [1]: inactive
EC50 ([2]; Homo sapiens, HCT-116, 0.5 h): 24200 nM
EC50 [3]: 37000 nM
p53 activation efficacy [4]: 81.587 and 107.715
EC50 ([4]; read-out: p53 activation EC50): 26600 nM
p53 activation EC50 [5]: inactive
Viability EC50 (p53RE-bla HCT-116 cells): inactive
Viability efficacy (p53RE-bla HCT-116 cells): inactive
Depletion after 16 h of incubation with cells [6]: 99.99 ± 0%
EC50 ([7]; HCT-116): 32200 nM
Emax ([7]; HCT-116, read-out: efficacy): 84.9%
Emax ([8]; HCT-116, read-out: p53 activation efficacy): 54.2%
